According to ChEMBL document CHEMBL1145846, “Discovery of allosteric potentiators for the metabotropic glutamate 2 receptor: synthesis and subtype selectivity of N-(4-(2-methoxyphenoxy)phenyl)-N-(2,2,2- trifluoroethylsulfonyl)pyrid-3-ylmethylamine” (J Med Chem, 2003):

Columns and labels:
[1] = molecular target: Metabotropic glutamate receptor 3 (Homo sapiens, UniProt Q14832); assay: Effective concentration against human cloned Metabotropic glutamate receptor 3
[2] = molecular target: T1, Metabotropic glutamate receptor 2 (Homo sapiens, UniProt Q14416); assay: Effective concentration against Metabotropic glutamate receptor 2
[3] = molecular target: T1, Metabotropic glutamate receptor 2; assay: Ability to displace [3H]LY-341,495 at glutamate-site on Metabotropic glutamate receptor 2; No significant displacement

T1 sequence (Q14416 whole entry): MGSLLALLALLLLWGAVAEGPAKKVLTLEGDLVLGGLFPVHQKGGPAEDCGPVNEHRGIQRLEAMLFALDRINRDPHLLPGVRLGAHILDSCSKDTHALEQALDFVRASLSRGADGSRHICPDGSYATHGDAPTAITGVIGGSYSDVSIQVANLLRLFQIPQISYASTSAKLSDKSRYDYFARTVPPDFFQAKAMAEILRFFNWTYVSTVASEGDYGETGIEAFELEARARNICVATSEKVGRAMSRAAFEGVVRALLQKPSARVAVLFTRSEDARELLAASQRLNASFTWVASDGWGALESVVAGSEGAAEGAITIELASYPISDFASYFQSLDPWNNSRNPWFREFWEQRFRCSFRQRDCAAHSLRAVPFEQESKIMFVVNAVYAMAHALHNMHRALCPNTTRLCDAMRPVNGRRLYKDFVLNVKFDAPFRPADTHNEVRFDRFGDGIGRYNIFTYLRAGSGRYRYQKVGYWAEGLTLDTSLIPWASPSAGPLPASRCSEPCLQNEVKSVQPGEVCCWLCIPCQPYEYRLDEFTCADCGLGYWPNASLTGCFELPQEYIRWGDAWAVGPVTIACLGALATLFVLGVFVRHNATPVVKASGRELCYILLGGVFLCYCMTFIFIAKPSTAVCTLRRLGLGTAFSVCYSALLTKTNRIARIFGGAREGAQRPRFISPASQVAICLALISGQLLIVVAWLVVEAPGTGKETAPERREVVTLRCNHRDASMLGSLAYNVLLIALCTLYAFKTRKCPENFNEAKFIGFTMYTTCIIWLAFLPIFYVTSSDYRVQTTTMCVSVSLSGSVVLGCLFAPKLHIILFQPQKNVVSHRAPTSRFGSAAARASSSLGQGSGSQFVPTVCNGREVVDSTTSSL
Metabotropic glutamate receptor 3, sequence (Q14832 whole entry): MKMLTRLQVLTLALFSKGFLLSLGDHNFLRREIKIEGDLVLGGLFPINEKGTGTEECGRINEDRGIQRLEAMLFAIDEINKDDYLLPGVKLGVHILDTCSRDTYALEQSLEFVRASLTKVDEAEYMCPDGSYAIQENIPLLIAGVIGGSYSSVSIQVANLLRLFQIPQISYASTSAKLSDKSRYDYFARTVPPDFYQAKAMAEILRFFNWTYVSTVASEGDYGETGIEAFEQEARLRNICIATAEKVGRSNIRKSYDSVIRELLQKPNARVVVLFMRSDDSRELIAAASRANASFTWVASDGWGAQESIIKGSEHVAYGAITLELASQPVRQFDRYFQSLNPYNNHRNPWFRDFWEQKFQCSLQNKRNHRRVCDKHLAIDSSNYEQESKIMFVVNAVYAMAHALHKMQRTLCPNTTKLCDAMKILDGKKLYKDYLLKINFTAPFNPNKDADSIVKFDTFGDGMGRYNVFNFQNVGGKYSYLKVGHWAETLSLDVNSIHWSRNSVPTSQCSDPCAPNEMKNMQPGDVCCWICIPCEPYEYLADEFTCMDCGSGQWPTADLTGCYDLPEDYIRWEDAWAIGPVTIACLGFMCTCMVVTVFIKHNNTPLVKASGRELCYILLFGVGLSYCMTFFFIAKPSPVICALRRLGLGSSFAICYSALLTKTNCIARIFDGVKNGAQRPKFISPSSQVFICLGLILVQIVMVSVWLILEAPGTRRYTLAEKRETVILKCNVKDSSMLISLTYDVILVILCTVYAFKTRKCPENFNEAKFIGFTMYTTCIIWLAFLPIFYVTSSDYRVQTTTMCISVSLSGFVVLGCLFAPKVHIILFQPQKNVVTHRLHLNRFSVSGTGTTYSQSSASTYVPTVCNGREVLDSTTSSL

EC50 [1]	EC50 [2]	IC50 [3]	Compound
> 12500 nM	1500 nM	–	CCS(=O)(=O)N(Cc1cccnc1)c1ccc(Oc2ccccc2)cc1
–	270 nM	> 100000 nM	COc1ccccc1Oc1ccc(N(Cc2cccnc2)S(=O)(=O)CC(F)(F)F)cc1
